Reference: patent US11505592B2, “Diagnosis and therapy of multiple sclerosis” (PRINDEX S.R.L., priority 2015, dated 2022)
Bridges are numbered along the chain shown (N, C = ends). Where no end group is shown, it is not given here. dibromoxylene = α,α'-dibromoxylene, used to cyclize the peptide by reaction with its two cysteines

Experiments:
CTRL sera = experiment: PEPSCAN-based ELISA, binding of control (CTRL) sera to library peptides; parameters: species or system human; settings: ELISA binding value, CTRLs n = 10
From the text: (§1) The linear and CLIPS peptides are synthesized based on the amino acid sequence of the target protein using standard Fmoc-chemistry and deprotected using […] with scavengers. The constrained peptides are synthesized on chemical scaffolds in order to reconstruct conformational epitopes, using Chemically Linked Peptides on Scaffolds (CLIPS) technology (Timmerman et al. (2007). For example, the single looped peptides are synthesized containing a dicysteine, which was cyclized by treating with alpha, alpha′-dibromoxylene and the size of the loop is varied by introducing cysteine residues at variable spacing. If other cysteines besides the newly introduced cysteines are present, they are replaced by alanine. The side-chains of the multiple cysteines in the peptides are coupled to CLIPS templates by reacting onto credit-card format polypropylene PEPSCAN cards (455 peptide formats/card) with a 0.5 mM solution of CLIPS template such as 1,3-bis (bromomethyl) benzene in ammonium bicarbonate (20 mM, pH 7.9)/acetonitrile (1:1(v/v)). The cards are gently shaken in the solution for 30 to 60 minutes while completely covered in solution. Finally, the cards are washed extensively with excess of H2O and sonicated in distrupt-buffer containing 1 percent SDS/0.1 percent beta-mercaptoethanol in PBS (pH 7.2) at 70° C. for 30 minutes, followed by sonication in H2O for another 45 minutes.
(§2) The binding of antibody to each peptide is tested in a PEPSCAN-based ELISA. The 455-well credit card format polypropylene cards containing the covalently linked peptides are incubated with primary antibody solution for example consisting of 1/1000 diluted serum in blocking solution, for example 4% horse serum, 5% ovalbumin (w/v) in PBS/1% Tween. After washing, the peptides are incubated with a 1/1000 dilution of antibody peroxidase conjugate for one hour at 25° C. After washing, the peroxidase substrate 2,2′-azino-di-3-ethylbenzthiazoline sulfonate (ABTS) and 2 microlitres of 3 percent H2O2 are added. After one hour, the color development are measured. The color development are quantified with a charge coupled device (CCD)-camera and an image processing system (Slootstra et al., 1996).
(§3) The raw data are optical values obtained by a CCD-camera calibrated to export absorption values compatible with a standard 96-well plate ELISA-reader. First the CCD-camera makes a picture of the card before peroxidase coloring and then again a picture after the peroxidase coloring. These two pictures are substracted from each other yielding a binding value for each peptide.
(§4) All peptides have been synthesized in a peptide array format and the binding of 20 different sera to all peptide libraries were measured in an ELISA based set up following the procedure described in detail in the method section “Peptide synthesis and screening assays”. In particular 2 sets of experiments were performed on the 2 libraries by using 2 different dilutions of the human patients sera. In the first set of experiment the 20 sera were used at 1:2500 dilutions, while in the second experiment the dilution of the sera was 1:1000. The binding of the different sera to all peptides was quantified and analyzed in detail (Tables 1 and 2, FIGS. 15A, B, C, D and […]

MS sera = experiment: PEPSCAN-based ELISA, binding of MS sera to library peptides; parameters: species or system human; settings: ELISA binding value, MS sera n = 9
From the text: as §1, §2, §3, §4

| Sequence | MEAN CTRL (CTRL sera; NOX2 library) | MEAN MS (MS sera; NOX2 library) | MEAN CTRL (CTRL sera; 5HT2A receptor library) | MEAN MS (MS sera; 5HT2A receptor library) |
| --- | --- | --- | --- | --- |
| CAVHNITVSEQKISEWCQNESYLNFARKRIKNC [SEQ ID NO: 126] | 370.15 | 685.667 |  |  |
| CAVHNITVSEQKISEWCSYLNFARKRIKNPEGC [SEQ ID NO: 133] | 375.55 | 648.556 |  |  |
| CAVHNITVSEQKISEWCVSEQKISEWGKIKESC [SEQ ID NO: 123] | 392.5 | 697.000 |  |  |
| CDSKVFKEGSSLLACKESSNEDVIGALLC [Peptide 16] |  |  | 347.50 | 604.03 |
| CDSKVFKEGSSLLACMDILSEENTSLSSC [Peptide 28] |  |  | 236.60 | 429.00 |
| CDSKVFKEGSSLLACSENRTNLSSEGSLC [Peptide 46] |  |  | 296.70 | 512.94 |
| CDSKVFKEGSSLLACSGEANTSDAFNWTC [Peptide 37] |  |  | 333.75 | 623.06 |
| CENTSLSSTTNSLMCMDILSEENTSLSSC [Peptide 17] |  |  | 175.00 | 316.22 |
| CERIVRGQTAESLAVHCQNESYLNFARKRIKNC [SEQ ID NO: 75] | 455.55 | 833.444 |  |  |
| CESLAVHNITVSEQKICGDRQNESYLNFARKRC [SEQ ID NO: 136] | 409.15 | 730.278 |  |  |
| CESLAVHNITVSEQKICQNESYLNFARKRIKNC [SEQ ID NO: 74] | 354.9 | 689.556 |  |  |
| CESLAVHNITVSEQKICSYLNFARKRIKNPEGC [SEQ ID NO: 79] | 357.1 | 639.611 |  |  |
| CEWSVNARVNNSDPYSCPYSVALSELGDRQNEC [SEQ ID NO: 72] | 225.5 | 428.167 |  |  |
| CEWSVNARVNNSDPYSCQNESYLNFARKRIKNC [SEQ ID NO: 103] | 372.8 | 714.944 |  |  |
| CEWSVNARVNNSDPYSCVSEQKISEWGKIKESC [SEQ ID NO: 155] | 433.775 | 760.083 |  |  |
| CFNVEWSVNARVNNSDCGDRQNESYLNFARKRC [SEQ ID NO: 129] | 423.15 | 792.889 |  |  |
| CFNVEWSVNARVNNSDCVSEQKISEWGKIKESC [SEQ ID NO: 141] | 447.325 | 784.944 |  |  |
| CFNWTVDSENRTNLCMDILSEENTSLSSC [Peptide 30] |  |  | 174.90 | 312.00 |
| CGDRQNESYLNFARKRCGDRQNESYLNFARKRC [SEQ ID NO: 85] | 404.05 | 775.500 |  |  |
| CGDRQNESYLNFARKRCQNESYLNFARKRIKNC [SEQ ID NO: 70] | 412.7 | 831.278 |  |  |
| CGDRQNESYLNFARKRCSYLNFARKRIKNPEGC [SEQ ID NO: 131] | 401.95 | 730.222 |  |  |

| Sequence | MEAN CTRL (CTRL sera; NOX2 library) | MEAN MS (MS sera; NOX2 library) | MEAN CTRL (CTRL sera; 5HT2A receptor library) | MEAN MS (MS sera; 5HT2A receptor library) |
| --- | --- | --- | --- | --- |
| CGDRQNESYLNFARKRCVSEQKISEWGKIKESC [SEQ ID NO: 152] | 461.6 | 805.278 |  |  |
| CHGAERIVRGQTAESLCNFARKRIKNPEGGLYC [SEQ ID NO: 89] | 404.6 | 733.889 |  |  |
| CHGAERIVRGQTAESLCQKISEWGKIKESPIPC [SEQ ID NO: 101] | 407.625 | 734.917 |  |  |
| CHGAERIVRGQTAESLCQNESYLNFARKRIKNC [SEQ ID NO: 73] | 407.2 | 748.111 |  |  |
| CHGAERIVRGQTAESLCSYLNFARKRIKNPEGC [SEQ ID NO: 82] | 417.5 | 755.722 |  |  |
| CITVSEQKISEAAKIKC (linker 1-17 via dibromoxylene (inferred)) [SEQ ID NO: 147] | 383.25 | 703.000 |  |  |
| CKISEWGKIKC [SEQ ID NO: 108] | 367.95 | 672.833 |  |  |
| CLGDRQNESYLAAARKC [SEQ ID NO: 145] | 402.85 | 698.944 |  |  |
| CLNFARKRIKC [SEQ ID NO: 87] | 374.7 | 713.333 |  |  |
| CLNFARKRIKNAAGGLC [SEQ ID NO: 92] | 367 | 691.444 |  |  |
| CLQDDSKVFKEGSSCKESSNEDVIGALLC [Peptide 48] |  |  | 373.15 | 632.28 |
| CLQDDSKVFKEGSSCMDILSEENTSLSSC [Peptide 7] |  |  | 233.80 | 434.67 |
| CLSEENTSLSSTTNCMDILSEENTSLSSC [Peptide 39] |  |  | 184.40 | 303.50 |
| CLSPSSLSLLHLQECMDILSEENTSLSSC [Peptide 10] |  |  | 183.45 | 305.00 |
| CLSPSSLSLLHLQECTVDSENRTNLSSEC [Peptide 27] |  |  | 263.00 | 427.89 |
| CLSSEGSLSPSSLSCMDILSEENTSLSSC [Peptide 26] |  |  | 188.85 | 320.72 |
| CLTILYGYRWPAASKLC [Peptide 41] |  |  | 449.80 | 782.33 |
| CLTILYGYRWPLPSCKESSNEDVIGALLC [Peptide 12] |  |  | 350.93 | 629.14 |
| CLTILYGYRWPLPSCLYGYRWPLPSKLSC [Peptide 40] |  |  | 508.45 | 879.72 |
| CLTILYGYRWPLPSCMDILSEENTSLSSC [Peptide 2] |  |  | 228.85 | 421.56 |
| CLTILYGYRWPLPSKLC [Peptide 35] |  |  | 475.00 | 792.94 |

| Sequence | MEAN CTRL (CTRL sera; NOX2 library) | MEAN MS (MS sera; NOX2 library) | MEAN CTRL (CTRL sera; 5HT2A receptor library) | MEAN MS (MS sera; 5HT2A receptor library) |
| --- | --- | --- | --- | --- |
| CLYGYRWPLPSKLSCKESSNEDVIGALLC [Peptide 20] |  |  | 390.93 | 689.03 |
| CLYGYRWPLPSKLSCMDILSEENTSLSSC [Peptide 4] |  |  | 246.80 | 449.78 |
| CLYGYRWPLPSKLSCSDAFNWTVDSENRC [Peptide 36] |  |  | 298.55 | 511.11 |
| CLYGYRWPLPSKLSCSGEANTSDAFNWTC [Peptide 43] |  |  | 344.80 | 649.67 |
| CLYGYRWPLPSKLSCYSNDFNSGEANTSC [Peptide 32] |  |  | 288.50 | 555.67 |
| CMDILSEENTSLSSCMQLNDDTRLYSNDC [Peptide 21] |  |  | 223.85 | 392.28 |
| CMDILSEENTSLSSCSKESSNEDVIGALC [Peptide 44] |  |  | 266.55 | 432.33 |
| CMQLNDDTRLYSNDCMDILSEENTSLSSC [Peptide 9] |  |  | 212.40 | 379.67 |
| CMQLNDDTRLYSNDCSGEANTSDAFNWTC [Peptide 15] |  |  | 257.25 | 497.78 |
| CNDDTRLYSNDFNSCMDILSEENTSLSSC [Peptide 24] |  |  | 196.45 | 350.67 |
| CNESYLNFARKAAKNPC [SEQ ID NO: 86] | 411.15 | 702.222 |  |  |
| CNFARKRIKNC [SEQ ID NO: 60] | 374.6 | 748.389 |  |  |
| CNFARKRIKNPEGGLYCGDRQNESYLNFARKRC [SEQ ID NO: 117] | 425.15 | 800.500 |  |  |
| CNFARKRIKNPEGGLYCQNESYLNFARKRIKNC [SEQ ID NO: 65] | 410.85 | 801.056 |  |  |
| CNFARKRIKNPEGGLYCSLAVHNITVSEQKISC [SEQ ID NO: 106] | 330.8 | 599.000 |  |  |
| CNFARKRIKNPEGGLYCSYLNFARKRIKNPEGC [SEQ ID NO: 97] | 416.6 | 752.333 |  |  |
| CNITVSEQKISAAGKIC [SEQ ID NO: 105] | 460.55 | 828.167 |  |  |
| CNITVSEQKISEWGKICGDRQNESYLNFARKRC [SEQ ID NO: 144] | 446.7 | 816.722 |  |  |
| CNITVSEQKISEWGKICQNESYLNFARKRIKNC [SEQ ID NO: 81] | 408.8 | 770.889 |  |  |
| CNITVSEQKISEWGKICSYLNFARKRIKNPEGC [SEQ ID NO: 99] | 397.7 | 738.444 |  |  |
